This passage reports inhibition results from US6359129B1, “Amino acid-derived, 7-membered cyclic sulfamides and methods of synthesizing the same” (University of Kansas, priority 2000, dated 2002).

Holding throughout (assay type): biochemical
The target in assay [1] is Herpes Simplex Virus Protease (Human herpesvirus 1, UniProt P10210). In words: Inhibition of Herpes Simplex Virus Protease. The settings on record: compound tested at 200 μmolar. The procedure: The inhibition of Herpes Simplex Virus Protease by the compound shown in Scheme R was determined according to the procedure described by Waxman et al., Antiviral Chemistry and Chemotherapy, 11:1-22 (1999); Qiu et al., Proteases of Infectious Agents, Academic Press, 93-115 (1999); and U.S. Pat. No. 6,008,033, each incorporated by reference herein.
The compound was tested at a concentration of 200 μmolar. [drawing 25]

The next assay addresses T1, HIV protease (Human immunodeficiency virus type 1 group M subtype B, UniProt P04585).
T1 construct: a key virally encoded protease enzyme of the pol gene
The assay can be described thus: Inhibition of HIV protease. The settings on record: compound at 99 μmolar. The procedure: The inhibition of HIV protease by the compounds shown in Scheme S (99 μmolar), Scheme T (99 μmolar), and Scheme U (99 μmolar) was determined following the procedure described by Maschera et al., Human Immunodeficiency Virus: Mutations in the Viral Protease that Confer Resistance to Saquinavir Increase the Dissociation Rate Constant for the Protease-Saquinavir Complex, J. Biol. Chem., 271:33231-35 (1996), incorporated by reference herein. [drawing 26] [drawing 27] [drawing 28]

Another assay concerns the target T2, human cathepsin K (Homo sapiens, UniProt P43235).
T2 sequence (P43235 115-329): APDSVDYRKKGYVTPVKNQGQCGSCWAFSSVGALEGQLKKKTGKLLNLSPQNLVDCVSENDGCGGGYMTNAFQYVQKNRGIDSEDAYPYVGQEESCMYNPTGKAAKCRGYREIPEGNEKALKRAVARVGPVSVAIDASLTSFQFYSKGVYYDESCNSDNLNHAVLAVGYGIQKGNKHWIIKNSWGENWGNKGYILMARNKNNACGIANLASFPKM
In words: Inhibition of human cathepsin K (fluorogenic peptide assay). The note with it: compound at 106 μmolar; pH 5.5, 10 μmolar peptide, 32° C. How it is done: The inhibition of human cathepsin K by the compounds shown in Schemes V (106 μmolar) and W (106 μmolar) was determined. [drawing 29] [drawing 30]
The peptides utilized were chromophoric Z-Phe-Arg-pNA*HCl and fluorogenic Z-Phe-Arg-AMC (each available from BACHEM Bioscience, Inc.). Stock solutions were prepared with 100% dimethylsulfoxide (DMSO) and stored at −20° C.
The final assay conditions were 100 mM NaOAc, pH of 5.5, 10 mM (R,R)-dithiothreitol (DTT), 10% DMSO, 120 mM NaCl, 10 μmolar of the peptide, and 12.5-0.012 μmolar inhibitor in twofold serial dilutions from 20× stocks in 100% DMSO. The enzyme working solution was a 1:3000 dilution of […] human cathepsin K into 100 mM of NaOAc, pH of 5.5, 10 mM DTT, 1.2 M NaCl.
Serial dilutions were performed in 100% DMSO. Columns 2-12 of an intermediate plate were filled with […] of 100% DMSO and column 1 was filled with […]. Next, […] of a 10 mM solution was added to column 1. […] The fluorescence was monitored every 6 minutes for 72 minutes using a CytoFluor Series 4000 PerSeptive Biosystems multi-well fluorescence plate reader with the following settings: gain=50; 20 reads/well; 32° C.; lex=360±20 nm; and lem=440±20 nm.

SMILES strings stand for the structures.

Sequence of Herpes Simplex Virus Protease (P10210 1-247): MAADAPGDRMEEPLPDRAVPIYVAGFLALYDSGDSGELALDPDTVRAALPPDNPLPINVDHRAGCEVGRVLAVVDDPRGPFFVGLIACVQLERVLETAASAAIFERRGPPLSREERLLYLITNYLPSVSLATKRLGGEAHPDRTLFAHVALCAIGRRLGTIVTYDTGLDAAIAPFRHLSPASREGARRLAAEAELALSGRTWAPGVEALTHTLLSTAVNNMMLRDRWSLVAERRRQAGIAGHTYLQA

The term inhibition denotes the relative decrease from the control value, in per cent. Low values mean little suppression, high ones strong suppression. In assay [1], `COC(=O)C(Cc1ccccc1)N1CC(O)C(O)CN(Cc2ccccc2)S1(=O)=O` (stereo not drawn) [Scheme R] gave an inhibition at 200 µM of 20.5%.
On HIV protease, `CC(C)CC(COCc1ccccc1)N1CC=CCN(C(COCc2ccccc2)CC(C)C)S1(=O)=O` (stereo not drawn) [Scheme S] came in with an inhibition at 99 µM of 96%.
Same read-out and setting: in the case of `COC(=O)C(Cc1ccccc1)N1CC(O)C(O)CN(C(Cc2ccccc2)C(=O)OC)S1(=O)=O` (stereo not drawn) [Scheme T] it was 22%; in that of `COC(=O)C(Cc1ccccc1)N1CC(O)C(O)CN(Cc2ccccc2)S1(=O)=O` (stereo not drawn) [Scheme U], 21%.
The compound `CC(C)CC(COCc1ccccc1)N1CC=CCN(C(COCc2ccccc2)CC(C)C)S1(=O)=O` (stereo not drawn) [Scheme V] displayed an inhibition at 106 µM against human cathepsin K of 20%.
On the same count and under the same terms, in the case of `CC(C)CC(C(=O)NO)N1CC=CCN(C(CC(C)C)C(=O)NO)S1(=O)=O` (stereo not drawn) [Scheme W] it was 14%.
